Laboratory results: ChEMBL document CHEMBL5214991, “Discovery of 4-methyl-3-(pyridin-2-ylamino)benzamide derivatives as C-Abl inhibitors with potential neuroprotective effect” (Bioorg Med Chem, 2022)
Calls of active or inactive are those of the source. The calls are words filed in the database; no cut-off is given here.

Key:
[1] = Cytotoxicity against HEK293 cells incubated for 48 hrs and measured by MTT assay; format: toxicity, cell-based; details: human
[2] = Cytotoxicity against human L02 cells incubated for 48 hrs and measured by MTT assay; format: toxicity, cell-based
[3] = Cytotoxicity against rat H9c2 cells incubated for 48 hrs and measured by MTT assay; format: toxicity, cell-based
[4] = Cytotoxicity against human SH-SY5Y cells incubated for 48 hrs and measured by MTT assay; format: toxicity, cell-based
SH-SY5Y [5] = test: Neuroprotective activity against MPP+-induced cell death in human SH-SY5Y cells assessed as increase in cell viability at 0.08 to 20 uM measured after 48 hrs by propidium iodide staining method; format: functional, cell-based; details: dose 0.08-20 µM
[6] = AUC (0 to infinity) in male Sprague-Dawley rat at 20 mg/kg, po measured by LC-MS/MS analysis; format: ADME, organism-based; design: time infinity, dose 20 mg/kg, route po; details: in vivo
[7] = Oral bioavailability in male Sprague-Dawley rat at 20 mg/kg measured by LC-MS/MS analysis; format: ADME, organism-based; details: in vivo
[8] = Tmax in male Sprague-Dawley rat at 20 mg/kg, po measured by LC-MS/MS analysis; format: ADME, organism-based; details: in vivo
[9] = MRT (0 to infinity) in male Sprague-Dawley rat at 20 mg/kg, po measured by LC-MS/MS analysis; format: ADME, organism-based; details: in vivo
[10] = AUC (0 to t) in male Sprague-Dawley rat at 20 mg/kg, po measured by LC-MS/MS analysis; format: ADME, organism-based; design: dose 20 mg/kg, route po; details: in vivo
[11] = Half-life in male Sprague-Dawley rat at 20 mg/kg, po measured by LC-MS/MS analysis; format: ADME, organism-based; details: in vivo
[12] = AUC (0 to infinity) in male Sprague-Dawley rat at 5 mg/kg, iv measured by LC-MS/MS analysis; format: ADME, organism-based; design: time infinity, dose 5 mg/kg, route iv; details: in vivo
[13] = Ratio of drug concentration in brain to plasma in male Sprague-Dawley rat at […], iv measured by LC-MS/MS analysis; format: ADME, organism-based; details: dose 5 mg/kg, read-out: BPR
[14] = MRT (0 to t) in male Sprague-Dawley rat at 5 mg/kg, iv measured by LC-MS/MS analysis; format: ADME, organism-based; details: in vivo
[15] = MRT (0 to t) in male Sprague-Dawley rat at 20 mg/kg, po measured by LC-MS/MS analysis; format: ADME, organism-based; details: in vivo
[16] = Half-life in male Sprague-Dawley rat at 5 mg/kg, iv measured by LC-MS/MS analysis; format: ADME, organism-based; details: in vivo
[17] = AUC (0 to t) in male Sprague-Dawley rat at 5 mg/kg, iv measured by LC-MS/MS analysis; format: ADME, organism-based; design: dose 5 mg/kg, route iv; details: in vivo
[18] = MRT (0 to infinity) in male Sprague-Dawley rat at 5 mg/kg, iv measured by LC-MS/MS analysis; format: ADME, organism-based; details: in vivo
[19] = Clearance in male Sprague-Dawley rat at 5 mg/kg, iv measured by LC-MS/MS analysis; format: ADME, organism-based; details: in vivo
[20] = Volume of distribution at steady state in male Sprague-Dawley rat at 5 mg/kg, iv measured by LC-MS/MS analysis; format: ADME, organism-based; details: in vivo, read-out: Vdss
[21] = Cmax in male Sprague-Dawley rat at 20 mg/kg, po measured by LC-MS/MS analysis; format: ADME, organism-based; design: dose 20 mg/kg, route po; details: in vivo
SH-SY5Y [22] = test: Neuroprotective activity against MPP+-induced cell death in human SH-SY5Y cells assessed as reduction in apoptosis at 1.25 to 5 uM measured after 48 hrs by propidium iodide staining method; format: functional, cell-based; details: dose 1.25-5 µM

| bioavailability [7] [%] | Structure (SMILES) | IC50 at 48 h [1] [µM] | IC50 at 48 h [2] [µM] | IC50 at 48 h [3] [µM] | IC50 at 48 h [4] [µM] | Activity (SH-SY5Y [5]) | other results |
| --- | --- | --- | --- | --- | --- | --- | --- |
|  | Cc1cn(-c2cc(NC(=O)c3ccc(C)c(Nc4cc(-c5cccnc5)ccn4)c3)cc(C(F)(F)F)c2)cn1 | > 80 | > 80 | > 80 | > 80 | Active |  |
|  | Cc1ccc(C(=O)Nc2cc(-c3cnn(C)c3)cc(C(F)(F)F)c2)cc1Nc1cc(-c2cncnc2)ccn1 | > 80 | > 80 | > 80 | > 80 | Active |  |
|  | Cc1ccc(C(=O)Nc2ccc(CN3CCN(C)CC3)c(C(F)(F)F)c2)cc1Nc1cc(-c2cncnc2)ccn1 | 17.1 | 30.1 | 16.7 | 12 | Active |  |
|  | Cc1ccc(C(=O)Nc2ccc(CN3CCN(C)CC3)c(C(F)(F)F)c2)cc1Nc1cc(-c2cccnc2)ccn1 | 14 | 37.4 | 9.12 | 19 | Active |  |
| 47.6 | Cc1ccc(C(=O)Nc2cc(-c3cnn(C)c3)cc(C(F)(F)F)c2)cc1Nc1cc(-c2cccnc2)ccn1 | > 80 | > 80 | > 80 | > 80 | Active | AUC(0-inf) [6]: 9900 ng·h/mL; Tmax [8]: 2.33 h; MRT inf [9]: 5.93 h; AUC(0-t) [10]: 9890 ng·h/mL; half-life [11]: 3.54 h; AUC(0-inf) [12]: 5200 ng·h/mL; Kp [13]: 4; MRT last [14]: 5.29 h; MRT last [15]: 5.9 h; half-life [16]: 3.62 h; AUC(0-t) [17]: 5120 ng·h/mL; MRT inf [18]: 5.29 h; clearance [19]: 17.7 mL/min/kg; Vd [20]: 5.36 L/kg; Cmax [21]: 1380 ng/mL; Activity (SH-SY5Y [22]): Active |
| 27.1 | Cc1cn(-c2cc(NC(=O)c3ccc(C)c(Nc4nccc(-c5cccnc5)n4)c3)cc(C(F)(F)F)c2)cn1 [NILOTINIB] | 8.4 | 40.4 | 21.3 | 38.5 | Active |  |
